Laboratory results published in patent US11718604B2, “4-amino-6-(1,3-benzodioxole)picolinates and their use as herbicides” (Dow AgroSciences LLC, priority 2018, dated 2023).

Experiments:
Format in all cases: in vivo
[1] = tested on: CIRAR: Canada thistle (Cirsium arvense); assay: Post-emergent herbicidal test, Canada thistle; details: post-emergence, 336 h, 14 days after application, read-out: Visual Growth Reduction (%) 14 Days After Application CIRAR; for pest or weed control at 17.5 g/ha: 17.5 g ai/ha; for pest or weed control at 35 g/ha: 35 g ai/ha; for pest or weed control at 70 g/ha: 70 g ai/ha; for pest or weed control at 140 g/ha: 140 g ai/ha
Summary of the method: (§1)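 Visual injury rating, 0 (none) to 100% (complete kill), made 14 d after treatment relative to untreated plants. Foliar track-sprayer application at 187 L/ha to plants at the 1st-2nd true leaf stage; rates were twofold serial dilutions from the highest rate down to 1/16×.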

[2] = tested on: DIGSA: large crabgrass (Digitaria sanguinalis); assay: Post-emergent herbicidal test, large crabgrass; details: post-emergence, 336 h, 14 days after application, read-out: Visual Growth Reduction (%) 14 Days After Application DIGSA; for pest or weed control at 17.5 g/ha: 17.5 g ai/ha; for pest or weed control at 35 g/ha: 35 g ai/ha; for pest or weed control at 70 g/ha: 70 g ai/ha; for pest or weed control at 140 g/ha: 140 g ai/ha
Summary of the method: as §1

[3] = tested on: VIOTR: wild violet (Viola tricolor); assay: Post-emergent herbicidal test, wild violet; details: post-emergence, 336 h, 14 days after application, read-out: Visual Growth Reduction (%) 14 Days After Application VIOTR; for pest or weed control at 17.5 g/ha: 17.5 g ai/ha; for pest or weed control at 35 g/ha: 35 g ai/ha; for pest or weed control at 70 g/ha: 70 g ai/ha; for pest or weed control at 140 g/ha: 140 g ai/ha
Summary of the method: as §1

[4] = tested on: ECHCG: barnyardgrass (Echinochloa crus-galli); assay: Post-emergent herbicidal test, barnyardgrass; details: post-emergence, 336 h, 14 days after application, read-out: Visual Growth Reduction (%) 14 Days After Application ECHCG; for pest or weed control at 17.5 g/ha: 17.5 g ai/ha; for pest or weed control at 35 g/ha: 35 g ai/ha; for pest or weed control at 70 g/ha: 70 g ai/ha; for pest or weed control at 140 g/ha: 140 g ai/ha
Summary of the method: as §1

[5] = tested on: BRSNN: oilseed rape, canola (Brassica napus); assay: Post-emergent herbicidal test, oilseed rape; details: post-emergence, 336 h, 14 days after application, read-out: Visual Growth Reduction (%) 14 Days After Application BRSNN; for pest or weed control at 17.5 g/ha: 17.5 g ai/ha; for pest or weed control at 35 g/ha: 35 g ai/ha; for pest or weed control at 70 g/ha: 70 g ai/ha; for pest or weed control at 140 g/ha: 140 g ai/ha
Summary of the method: as §1

[6] = tested on: ABUTH: velvetleaf (Abutilon theophrasti); assay: Post-emergent herbicidal test, velvetleaf; details: post-emergence, 336 h, 14 days after application, read-out: Visual Growth Reduction (%) 14 Days After Application ABUTH; for pest or weed control at 17.5 g/ha: 17.5 g ai/ha; for pest or weed control at 35 g/ha: 35 g ai/ha; for pest or weed control at 70 g/ha: 70 g ai/ha; for pest or weed control at 140 g/ha: 140 g ai/ha
Summary of the method: as §1

[7] = tested on: IPOHE: ivyleaf morningglory (Ipomoea hederacea); assay: Post-emergent herbicidal test, ivyleaf morningglory; details: post-emergence, 336 h, 14 days after application, read-out: Visual Growth Reduction (%) 14 Days After Application IPOHE; for pest or weed control at 17.5 g/ha: 17.5 g ai/ha; for pest or weed control at 35 g/ha: 35 g ai/ha; for pest or weed control at 70 g/ha: 70 g ai/ha; for pest or weed control at 140 g/ha: 140 g ai/ha
Summary of the method: as §1

[8] = tested on: EPHHL: wild poinsettia (Euphorbia heterophylla); assay: Post-emergent herbicidal test, wild poinsettia; details: post-emergence, 336 h, 14 days after application, read-out: Visual Growth Reduction (%) 14 Days After Application EPHHL; for pest or weed control at 17.5 g/ha: 17.5 g ai/ha; for pest or weed control at 35 g/ha: 35 g ai/ha; for pest or weed control at 70 g/ha: 70 g ai/ha; for pest or weed control at 140 g/ha: 140 g ai/ha
Summary of the method: as §1

[9] = tested on: SORVU: shattercane (Sorghum bicolor); assay: Post-emergent herbicidal test, shattercane; details: post-emergence, 336 h, 14 days after application, read-out: Visual Growth Reduction (%) 14 Days After Application SORVU; for pest or weed control at 17.5 g/ha: 17.5 g ai/ha; for pest or weed control at 35 g/ha: 35 g ai/ha; for pest or weed control at 70 g/ha: 70 g ai/ha; for pest or weed control at 140 g/ha: 140 g ai/ha
Summary of the method: as §1

[10] = tested on: SETFA: giant foxtail (Setaria faberi); assay: Post-emergent herbicidal test, giant foxtail; details: post-emergence, 336 h, 14 days after application, read-out: Visual Growth Reduction (%) 14 Days After Application SETFA; for pest or weed control at 17.5 g/ha: 17.5 g ai/ha; for pest or weed control at 35 g/ha: 35 g ai/ha; for pest or weed control at 70 g/ha: 70 g ai/ha; for pest or weed control at 140 g/ha: 140 g ai/ha
Summary of the method: as §1

[11] = tested on: CYPES: yellow nutsedge (Cyperus esculentus); assay: Post-emergent herbicidal test, yellow nutsedge; details: post-emergence, 336 h, 14 days after application, read-out: Visual Growth Reduction (%) 14 Days After Application CYPES; for pest or weed control at 17.5 g/ha: 17.5 g ai/ha; for pest or weed control at 35 g/ha: 35 g ai/ha; for pest or weed control at 70 g/ha: 70 g ai/ha; for pest or weed control at 140 g/ha: 140 g ai/ha
Summary of the method: as §1

Structure (SMILES): Nc1c(F)c(-c2ccc(Cl)c3c2OCO3)nc(C(=O)O)c1Cl [Compound 1, 4-amino-3-chloro-6-(7-chlorobenzo[d][1,3]dioxol-4-yl)-5-fluoropicolinic acid]
- pest or weed control at 17.5 g/ha [1]: 85%
- pest or weed control at 35 g/ha [1]: 85%
- pest or weed control at 70 g/ha [1]: 95%
- pest or weed control at 140 g/ha [1]: 90%
- pest or weed control at 17.5 g/ha [2]: 0%
- pest or weed control at 35 g/ha [2]: 20%
- pest or weed control at 70 g/ha [2]: 30%
- pest or weed control at 140 g/ha [2]: 50%
- pest or weed control at 17.5 g/ha [3]: 40%
- pest or weed control at 35 g/ha [3]: 60%
- pest or weed control at 70 g/ha [3]: 70%
- pest or weed control at 140 g/ha [3]: 95%
- pest or weed control at 17.5 g/ha [4]: 0%
- pest or weed control at 35 g/ha [4]: 0%
- pest or weed control at 70 g/ha [4]: 30%
- pest or weed control at 140 g/ha [4]: 40%
- pest or weed control at 17.5 g/ha [5]: 55%
- pest or weed control at 35 g/ha [5]: 100%
- pest or weed control at 70 g/ha [5]: 100%
- pest or weed control at 140 g/ha [5]: 100%
- pest or weed control at 17.5 g/ha [6]: 80%
- pest or weed control at 35 g/ha [6]: 85%
- pest or weed control at 70 g/ha [6]: 90%
- pest or weed control at 140 g/ha [6]: 95%
- pest or weed control at 17.5 g/ha [7]: 0%
- pest or weed control at 35 g/ha [7]: 0%
- pest or weed control at 70 g/ha [7]: 10%
- pest or weed control at 140 g/ha [7]: 15%
- pest or weed control at 17.5 g/ha [8]: 0%
- pest or weed control at 35 g/ha [8]: 0%
- pest or weed control at 70 g/ha [8]: 5%
- pest or weed control at 140 g/ha [8]: 15%
- pest or weed control at 17.5 g/ha [9]: 35%
- pest or weed control at 35 g/ha [9]: 35%
- pest or weed control at 70 g/ha [9]: 50%
- pest or weed control at 140 g/ha [9]: 60%
- pest or weed control at 17.5 g/ha [10]: 10%
- pest or weed control at 35 g/ha [10]: 10%
- pest or weed control at 70 g/ha [10]: 35%
- pest or weed control at 140 g/ha [10]: 50%
- pest or weed control at 17.5 g/ha [11]: 35%
- pest or weed control at 35 g/ha [11]: 40%
- pest or weed control at 70 g/ha [11]: 80%
- pest or weed control at 140 g/ha [11]: 90%

Structure (SMILES): COC(=O)c1nc(-c2cccc3c2OCO3)c(F)c(N)c1Cl [Compound 2]
- pest or weed control at 17.5 g/ha [1]: 60%
- pest or weed control at 35 g/ha [1]: 100%
- pest or weed control at 70 g/ha [1]: 98%
- pest or weed control at 140 g/ha [1]: 98%
- pest or weed control at 17.5 g/ha [2]: 0%
- pest or weed control at 35 g/ha [2]: 0%
- pest or weed control at 70 g/ha [2]: 0%
- pest or weed control at 140 g/ha [2]: 0%
- pest or weed control at 17.5 g/ha [3]: 0%
- pest or weed control at 35 g/ha [3]: 0%
- pest or weed control at 70 g/ha [3]: 0%
- pest or weed control at 140 g/ha [3]: 10%
- pest or weed control at 17.5 g/ha [4]: 0%
- pest or weed control at 35 g/ha [4]: 0%
- pest or weed control at 70 g/ha [4]: 0%
- pest or weed control at 140 g/ha [4]: 0%
- pest or weed control at 17.5 g/ha [5]: 30%
- pest or weed control at 35 g/ha [5]: 40%
- pest or weed control at 70 g/ha [5]: 85%
- pest or weed control at 140 g/ha [5]: 90%
- pest or weed control at 17.5 g/ha [6]: 50%
- pest or weed control at 35 g/ha [6]: 60%
- pest or weed control at 70 g/ha [6]: 75%
- pest or weed control at 140 g/ha [6]: 95%
- pest or weed control at 17.5 g/ha [7]: 0%
- pest or weed control at 35 g/ha [7]: 0%
- pest or weed control at 70 g/ha [7]: 10%
- pest or weed control at 140 g/ha [7]: 25%
- pest or weed control at 17.5 g/ha [8]: 0%
- pest or weed control at 35 g/ha [8]: 0%
- pest or weed control at 70 g/ha [8]: 0%
- pest or weed control at 140 g/ha [8]: 0%
- pest or weed control at 17.5 g/ha [9]: 0%
- pest or weed control at 35 g/ha [9]: 0%
- pest or weed control at 70 g/ha [9]: 0%
- pest or weed control at 140 g/ha [9]: 0%
- pest or weed control at 17.5 g/ha [10]: 0%
- pest or weed control at 35 g/ha [10]: 0%
- pest or weed control at 70 g/ha [10]: 0%
- pest or weed control at 140 g/ha [10]: 0%
- pest or weed control at 17.5 g/ha [11]: 0%
- pest or weed control at 35 g/ha [11]: 0%
- pest or weed control at 70 g/ha [11]: 10%
- pest or weed control at 140 g/ha [11]: 30%
